The values that follow come from patent US11974987B2, “Monoacylglycerol lipase modulators for use in autism spectrum disorders” (Janssen Pharmaceutica NV, priority 2021, dated 2024).

Broadly, the IC50 is the midpoint of a concentration-inhibition curve.

The target of experiment [1] is human MGL from HeLa cells (Homo sapiens (Human), UniProt Q99685). The experiment is described as follows: in vitro MGL activity assay ([glycerol-1,3-3H]-oleoyl glycerol cleavage). It is filed as biochemical. As for the experimental part: The assay consists of combining endogenously expressed MGL from HeLa cells with test compounds, adding [glycerol-1,3-^3H]-oleoyl glycerol, incubating for one hour, and then measuring the amount of cleaved [1,3-^3H]-glycerol that passes through an activated carbon filter. The amount of cleaved, tritiated glycerol passing through the carbon filter is proportional to the activity of the MGL enzyme in a particular well/test condition.
Standard conditions for this assay combine 300 nM [Glycerol-1,3-^3H]-oleoyl glycerol with human MGL from HeLa cells and test compounds for one hour, after which the reaction is filtered through activated carbon and tritium is measured in the flow through. […] MGL is the predominant hydrolase in HeLa cells/cell homogenates.

The subject of experiment [2] is C57BL/6J mice. The experiment is described as follows: Three-chamber sociability test in C57BL/6J mice (control). It is filed as in vivo, mouse. The note with it: C57BL/6 mice, 3 mg/kg p.o., 60 minutes before testing. On the procedure:
(§1) Biological Example 3. The behavioral effects of the compound of Example 78 were evaluated using an animal model of autism in a sociability assay after administration of the compound. The sociability assay was conducted using C57BL/6J mice (commerically available from the Jackon Laboratory, Bar Harbor, ME) as control, and BTBR T^+ Itpr3^tf/mice (referred herein as “BTBR”)(commerically available from the Jackon Laboratory, Bar Harbor, ME) as an autism model.
(§2) Thirty (30) C57BL/6J female mice and thirty (30) BTBR female mice (7-8 weeks old) were used in Biological Example 3. Upon arrival, mice were group-housed (4-5/cage) and acclimated for at least 5 days prior to commencing studies. Animals were maintained on a 12 hr light/dark cycle with room temperature maintained at 22±2° C. and approximately 50% humidity and had access to food and water ad libitum until the day before the experiment.
(§3) The two solutions listed in Table 4 were formulated fresh daily for p.o. administration. Both solutions comprise 20% 2-Hydroxypropyl-β-cyclodextrin (HP-3-CD). The solution containing Example 78 is in a concentration of 0.3 mg/mL.
(§4) Each type of mice is divided into two different treatment groups: those orally administered a Vehicle solution, and those orally administered with a solution of Example 78, both prepared according to Table 4 above. The mice were randomly assigned to treatment groups according to Table 5 below. Mice were administered the test article 60 minutes prior to testing.
(§5) Experiments were carried out in a gray plastic arena with two clear dividers creating three chambers (each 19 cm×45 cm). […] Two wire cup-like containers were placed in the corner of either end of the arena (right chamber and left chamber). These containers were used to house either stimulus or familiar mice. The arena was placed in a room with dim lighting (˜10 lux). Animals were brought into the room to acclimate for at least 1 hour prior to beginning experiment.
Initially, empty wire cups are placed into the right and left chambers. Each of the C57BL/6J or BTBR mouse was placed into the center chamber and allowed to habituate for 10 minutes to the arena. After the 10-minute habituation and with the animal still in the arena, a first stimulus mouse, which was subsequently considered a familiar mouse, was placed inside one of the wire cups in either the right or left chamber. In the other wire cup, a small object was placed. […]
During the latter 10-minute period, activity of each mouse was recorded and analyzed using the Noldus EthoVision™ software, which is a video tracking software that tracks and analyzes the behavior, movement. The following data were record and scored using activity of each mouse for: […]
Data were plotted and analyzed using GraphPad Prism (version 9.1.1) software. […]

Experiment [3] has as its system BTBR mice. The experiment is described as follows: Three-chamber sociability test in BTBR mice (autism model). It is filed as in vivo, mouse. The note with it: 3 mg/kg p.o., 60 minutes before testing. As for the experimental part:
as §1
The BTBR mice used in Biological Example 3 was derived from the inbred strain BTBR (Black and Tan BRachyury) that carried the mutations a^t (nonagouti; black and tan), Itpr3^tf (inositol 1,4,5-triphosphate receptor 3; tufted), and T (brachyury). […] (Wahlsten D, 2003 Brain Res). […] (McFarlane H G, 2008, Gen, Brain Behav; Moy S S, 2007, Behav Br Res, Scattoni M L, 2008, PLos). This strain of mice contains the Trem2S148E allele—a naturally occurring variant at position 48351151-48351152 on Chr 17 (rs108080490 and rs107649577; Ensembl GRCm38.p6). This TC to GA transition results in a serine to glutamic acid substitution at amino acid 148 (S148E).
as §2, §3, §4, §5
Initially, empty wire cups are placed into the right and left chambers. Each of the C57BL/6J or BTBR mouse was placed into the center chamber and allowed to habituate for 10 minutes to the arena. After the 10-minute habituation and with the animal still in the arena, a first stimulus mouse, which was subsequently considered a familiar mouse, was placed inside one of the wire cups in either the right or left chamber. In the other wire cup, a small object was placed. The placement of the stimulus mouse and small object switched sides across subjects. The C57BL/6J or BTBR mouse was allowed 10 minutes to explore all three chambers. A second stimulus mouse was subsequently placed in the wire cup in the opposite chamber. The first stimulus mouse was considered as familiar mouse. Again, the C57BL/6J or BTBR mouse was allowed 10 minutes to explore all three chambers.
During the latter 10-minute period, activity of each mouse was recorded and analyzed using the Noldus EthoVision™ software, which is a video tracking software that tracks and analyzes the behavior, movement. The following data were record and scored using activity of each mouse for:
(1) Duration and number of direct/active contacts between the test mouse and both wire cups (stimulus vs. familiar); Active contact was defined as mouse stretching towards wire cup within a 3-5 mm area around the cup; and […]

The mark [4] stands for this setting: 300 nM [Glycerol-1,3-3H]-oleoyl glycerol, one hour, read-out: MGL IC50.

Molecules are shown by their SMILES. Read-outs that look alike come from different tables or passages of the source.

Sequence of human MGL from HeLa cells (Q99685 whole entry): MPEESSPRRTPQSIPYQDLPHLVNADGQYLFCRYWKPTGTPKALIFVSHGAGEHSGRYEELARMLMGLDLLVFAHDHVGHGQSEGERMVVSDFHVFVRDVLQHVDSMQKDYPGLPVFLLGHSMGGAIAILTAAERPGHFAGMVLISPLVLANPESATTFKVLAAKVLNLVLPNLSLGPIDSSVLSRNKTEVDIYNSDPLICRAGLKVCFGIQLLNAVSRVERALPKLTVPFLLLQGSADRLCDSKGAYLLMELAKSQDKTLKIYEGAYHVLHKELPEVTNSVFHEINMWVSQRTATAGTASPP

`O=C1CC[C@]2(C[C@H](C(=O)N3CCC4(c5cccc(OC(F)(F)F)c5)CC4C3)C2)N1` (mixture of isomers) [Example 52, (rac)-(2r,4s)-2-(6-(3-(Trifluoromethoxy)phenyl)-3-azabicyclo[4.1.0]heptane-3-carbonyl)-5-azaspiro[3.4]octan-6-one] had an IC50 in experiment [1] of 4.8 nM.
On to `O=C1CC[C@]2(C[C@H](C(=O)N3CCC4(c5ccc(OC(F)(F)F)cc5)CC4C3)C2)N1` (mixture of isomers) [Example 55, (rac)-(2r,4s)-2-(6-(4-(Trifluoromethoxy)phenyl)-3-azabicyclo[4.1.0]heptane-3-carbonyl)-5-azaspiro[3.4]octan-6-one], for which, in experiment [1] (setting [4]), the IC50 came out at 10 nM.
Still for that read-out and setting: with `O=C1CC[C@]2(C[C@H](C(=O)N3CCC4(c5ccc(C(F)(F)F)cc5)CC4C3)C2)N1` (mixture of isomers) [Example 59, (rac)-(2r,4s)-2-(6-(4-(Trifluoromethyl)phenyl)-3-azabicyclo[4.1.0]heptane-3-carbonyl)-5-azaspiro[3.4]octan-6-one] the figure was 18 nM.
On the same count and under the same terms, with `Cc1cccc([C@]23CCN(C(=O)[C@H]4C[C@]5(COC(=O)N5)C4)C[C@H]2C3)c1` (relative stereo) [Example 44, (2s,4*R)-2-((1*S,6*R)-6-(m-Tolyl)-3-azabicyclo[4.1.0]heptane-3-carbonyl)-7-oxa-5-azaspiro[3.4]octan-6-one] the figure was 2.8 nM; with `O=C1CC[C@]2(C[C@H](C(=O)N3CC[C@@]4(c5cccc(OC(F)(F)F)c5)C[C@H]4C3)C2)N1` (stereo in doubt) [Example 119, (2r,4*S)-2-((1*R,6*S)-6-(3-(Trifluoromethoxy)phenyl)-3-azabicyclo[4.1.0]heptane-3-carbonyl)-5-azaspiro[3.4]octan-6-one], 5.2 nM.
As to `O=C1CC[C@]2(C[C@H](C(=O)N3CC[C@]4(c5cccc(OC(F)(F)F)c5)C[C@@H]4C3)C2)N1` (stereo in doubt) [Example 120, (2r,4*R)-2-((1*S,6*R)-6-(3-(Trifluoromethoxy)phenyl)-3-azabicyclo[4.1.0]heptane-3-carbonyl)-5-azaspiro[3.4]octan-6-one], the IC50 in experiment [1] (setting [4]) was found to be 23 nM.
The same measure, in the same setting: the same measure for `O=C1CC[C@]2(C[C@H](C(=O)N3CC[C@@]4(c5ccc(OC(F)(F)F)cc5)C[C@H]4C3)C2)N1` (stereo in doubt) [Example 121, (2r,4*S)-2-((1*R,6*S)-6-(4-(Trifluoromethoxy)phenyl)-3-azabicyclo[4.1.0]heptane-3-carbonyl)-5-azaspiro[3.4]octan-6-one]: 42 nM.
The same measure, in the same setting: with `O=C1CC[C@]2(C[C@H](C(=O)N3CC[C@]4(c5ccc(OC(F)(F)F)cc5)C[C@@H]4C3)C2)N1` (stereo in doubt) [Example 122, (2r,4*R)-2-((1*S,6*R)-6-(4-(Trifluoromethoxy)phenyl)-3-azabicyclo[4.1.0]heptane-3-carbonyl)-5-azaspiro[3.4]octan-6-one] the figure was 12 nM.
Consider `CC(C)(C)c1cccc([C@H]2[C@@H]3CN(C(=O)[C@H]4C[C@]5(COC(=O)N5)C4)C[C@@H]32)c1` [Example 78, (2s,4S)-2-((1R,5S,6S)-6-(3-(tert-Butyl)phenyl)-3-azabicyclo[3.1.0]hexane-3-carbonyl)-7-oxa-5-azaspiro[3.4]octan-6-one], for which, in experiment [2], the “Mean Diff., amount of time spent exploring familiar mouse chamber and stimulus mouse chamber (Bonferroni's multiple comparisons test)” value was −23.01; the “Mean Diff., amount of time spent interacting with familiar mouse or stimulus mouse (Bonferroni's multiple comparisons test)” value worked out at 2.873; the “Mean Diff., number of entries into familiar mouse chamber and stimulus mouse chamber (Bonferroni's multiple comparisons test)” value was 8.133; the “Mean Diff., number of interactions with familiar mouse or stimulus mouse (Bonferroni's multiple comparisons test)” value turned out to be 37.87. Moreover, in experiment [3], the “Mean Diff., amount of time spent exploring familiar mouse chamber and stimulus mouse chamber (Bonferroni's multiple comparisons test)” value was −40.36; the “Mean Diff., amount of time spent interacting with familiar mouse or stimulus mouse (Bonferroni's multiple comparisons test)” value was −5.578; the “Mean Diff., number of entries into familiar mouse chamber and stimulus mouse chamber (Bonferroni's multiple comparisons test)” value worked out at 4.133; the “Mean Diff., number of interactions with familiar mouse or stimulus mouse (Bonferroni's multiple comparisons test)” value is reported as −47.07. Further, in experiment [3], the “preference to familiar mouse over stimulus mouse (FIGS. 1C and 1D)” value is “did not show preference to familiar mouse over stimulus mouse”; the “social interaction (interest in social novelty) as compared to BTBR mice treated with placebo” value is “improved social interaction”.
`CC(C)c1cccc([C@H]2[C@@H]3CN(C(=O)[C@H]4C[C@]5(COC(=O)N5)C4)C[C@@H]32)c1` [Example 84, (2s,4S)-2-((1R,5S,6S)-6-(3-Isopropylphenyl)-3-azabicyclo[3.1.0]hexane-3-carbonyl)-7-oxa-5-azaspiro[3.4]octan-6-one]: the IC50 in experiment [1] (setting [4]) amounted to 5.5 nM.
